Here are results for 1 compound from patent publication US20220175667A1, “Extracellular Matrices, Uses Thereof, and Methods of Making Extracellular Matrices” (Johns Hopkins University, priority 2019, published 2022).

Molecules are shown by their SMILES.

This data set can be described thus: Reactivity of valsartan under EMR curing conditions. The note with it: mixed with dextramate, PEGDA, Irgacure; cured for 10 minutes. It is filed as physicochemical. On the procedure: Dextramate (24.2 mL of a 23.1 w/w % solution), PEGDA (16.3 mL of a 8.6 w/w % solution), Irgacure (14 mL of a 0.5 w/w % solution), and valsartan (2.82 mL or 1.41 mL of a 24.8 w/w % solution or 2.82 mL of a 1:10 dilution of a 24.8 w/w % solution) are mixed together. The mixture is cured for 10 minutes. After curing, 100 mL of dH2O is added to the cured product to create a swelled gel.

On to `CCCCC(=O)N(Cc1ccc(-c2ccccc2-c2nnn[nH]2)cc1)[C@H](C(=O)O)C(C)C` [valsartan], for which the “reactivity under the curing conditions” value is listed as “does not exhibit reactivity”.
